Laboratory results taken from patent US20210260101A1, “POTENTIATED ANTIBIOTIC COMPOSITIONS AND METHODS OF USE FOR TREATING BACTERIAL INFECTIONS AND BIOFILMS” (priority 2018, published 2021).
“Also recorded” adds a separate entry of the source.

Assays:
MRSA OU6 biofilms = assay: Biofilm disrupting assay (crystal violet), MRSA OU6; format: cell-based, Staphylococcus aureus; conditions: 64 and 128 μg/mL, 20 hr
Experimental: This experiment was conducted in parallel with polymyxin B (PmB, a cationic polypeptide antibiotic) and BPEI600. In short, an overnight MRSA OU 6 culture was inoculated in a tissue-culture treated 96-well plate (100 μL of tryptic soy broth or TSB/well) with an inoculation size of 1 μL/well (˜5×10^5 CFU/mL). The plate was incubated at 35° C. for 24 hr to allow the bacteria to form biofilm. It was then washed with water to remove planktonic bacteria and stained with 100 μL of crystal violet solution (0.1%) per well for 15 min. The stained plate was washed excessively with water 5 times to remove any unbound stain and air-dried overnight. […] A negative control (water only) and positive control (30% acetic acid) were also conducted at the same time of treatment. After 20 hr, without touching the biofilm layer in the bottom of the plate, solubilized solution in each treated well was carefully transferred to a new 96-well plate for an OD550 measurement, which represents the corresponding amount of biofilm disrupted by each treatment.

[1] = tested on: P. aeruginosa BAA-47 cells; assay: NPN accumulation assay; format: cell-based, Pseudomonas aeruginosa; conditions: 64 μg/mL polymyxin-B; 64 and 128 μg/mL BPEI600; ~6×10^9 CFU/ml
Experimental: Overnight culture of P. aeruginosa BAA-47 was used to inoculate fresh CAMHB media for another 5 hr at 35° C. with shaking. Bacterial cells were collected by centrifugation at 6000 rpm for 40 min and resuspended in PBS. The OD600 of the cell suspension was adjusted to ˜1.0 and kept at room temperature during the experiment. Aliquots (180 μL/well) of the cell suspension were transferred to a 96-well flat-bottom black plate in the format of column 1, PBS blank; column 2, untreated control cells BAA-47; column 3, cells BAA-47+BPEI (sub-lethal concentration). Five technical replicates of each group were conducted. Fluorescent probes Hoechst 33342 bisbenzimide (H33342) or 1-N-phenylnaphthylamine (NPN) was added (20 μL) to each well with a final concentration of 5 μM. Fluorescence was read immediately after the addition of H33342 or NPN by a Tecan Infinite M20 plate reader with the excitation and emission filters of 355 and 460 nm for H33342 or 350 and 420 nm for NPN, respectively. Fluorescence data were normalized to the emission before cells were added in the PBS control, and they were plotted against time to show the cellular uptake of H33342 or NPN over 10 min.

[2] = tested on: P. aeruginosa BAA-47 cells; assay: Resazurin cell viability assay; format: cell-based, Pseudomonas aeruginosa; conditions: 64 μg/mL
Experimental: All fluorescence studies used a cell density of ˜6×10^9 CFU/mL, while checkerboard assays only inoculated a cell density of 5×10^5 CFU/mL. Therefore, an amount of 128 μg/mL BPEI for fluorescence assays is considered sub-lethal, which is tested and confirmed by resazurin assays. The reduction of resazurin to resorufin occurs via cellular metabolism and thus is an excellent reporter of cell viability. […] First, the cells in the fluorescence assays are viable and thus drug influx and efflux processes control the intracellular concentration rather than widespread disruption of outer membrane that leads to cell lysis.

Substance: polymyxin B
- biofilm dispersal (crystal violet) (MRSA OU6 biofilms): slight dissolution in biomass
- fold increase in NPN fluorescence intensity [1]: 2.7 fold
- cell viability (resazurin) [2]: near background levels; also recorded: lethal
